Peptide text beside a SMILES is read from it.
Tests used:
Format in all cases: biochemical
other caspases = assay: In vitro cleavage assay on panel of human recombinant caspases (cross-reaction); details: at high doses
Experimental: Newly designed inhibitors (Ac-LDEAD(SEQ ID NO:7)-CHO, Ac-VDEAD(SEQ ID NO:1)-CHO) . . . ) were tested against a large panel of caspase (1 to 10) during in vitro cleavage assay according to the following protocol. Human recombinant caspases (25-50 U; Biomol) were pre-incubated 30 min with inhibitors (0.005-2 μM) in final 100 μl final assay buffer (50 mM HEPES, pH 7.4, 100 mM NaCl, 0.1% CHAPS, 10 mM DTT, 1 mM EDTA, 10% glycerol) and then mixed with 200 μM of their specific fluorogenic caspase substrates (BIOMOL) (Ac-YVAD(SEQ ID NO:23)-AMC (caspase-1), Ac-VDVAD(SEQ ID NO:9)-AMC (caspase-2), Ac-DEVD(SEQ ID NO:24)-AMC (caspase-3/-7), Ac-VEID(SEQ ID NO:25)-AMC (caspase-6), Ac-IETD(SEQ ID NO:26)-AMC (caspase-81-10)1Ac-LEHD(SEQ ID NO:27)-AMC (caspase-9). The cleavage of AMC-based substrates by human recombinant caspases 1-10 was measured after 2 h at 37° C. on a fluorescence microplate reader by monitoring emission at 510 nm upon excitation at 405 nm.

[1] = target: T1, human recombinant caspase-2 (Homo sapiens, UniProt P42575); assay: In vitro caspase-2 cleavage assay (Ac-VDVAD-AMC substrate); set-up: key to Group (pattern of caspase-2 inhibition curve): group 1 referred to inhibitors that were relatively more active than VDVAD(SEQ ID NO:9)-based inhibitors against caspase-2 at lower doses, but with similar IC50 values; group 2 referred to VDVAD(SEQ ID NO:9)-based inhibitor with characteristic sigmoid dose-response; group 3 referred to pentapetidic-based inhibitors that were less active than VDVAD(SEQ ID NO:9)-based inhibitors against caspase-2 at lower doses and that exhibited higher IC50; details: for Group (pattern of caspase-2 inhibition curve) / IC50: Table 4; for IC50: 30 min pre-incubation, 2 h at 37° C.
T1 construct: purchased BIOMOL
T1 sequence (P42575 170-333 limits assumed): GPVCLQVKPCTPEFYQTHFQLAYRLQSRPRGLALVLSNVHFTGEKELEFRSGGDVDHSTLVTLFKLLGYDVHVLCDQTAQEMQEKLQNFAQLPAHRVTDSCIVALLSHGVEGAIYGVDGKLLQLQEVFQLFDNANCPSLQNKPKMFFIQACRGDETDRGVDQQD
T1 sequence (P42575 348-452 limits assumed): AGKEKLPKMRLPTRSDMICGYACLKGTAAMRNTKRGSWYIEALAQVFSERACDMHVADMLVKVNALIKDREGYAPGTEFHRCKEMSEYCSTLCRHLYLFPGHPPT
Experimental: Newly designed inhibitors (Ac-LDEAD(SEQ ID NO:7)-CHO, Ac-VDEAD(SEQ ID NO:1)-CHO . . . ) were compared to Ac-VDVAD(SEQ ID NO:9)-CHO in in vitro caspase-2 cleavage assay according to the following protocol (FIG. 8). Human recombinant caspases (25-50 U; QuantiZyme™ Assay System, BIOMOL, Plymouth, Pa., USA) were pre-incubated 30 min with inhibitors (0.005-2 μM) in final 100 μl final assay buffer (50 mM HEPES, pH 7.4, 100 mM NaCl, 0.1% CHAPS, 10 mM DTT, 1 mM EDTA, 10% glycerol) and then mixed with 200 μM of the fluorogenic caspase substrates (BIOMOL) Ac-VDVAD(SEQ ID NO:9)-AMC. An IC50 value corresponding to the concentration that could inhibit 50% of caspase activity was determined from the dose-response sigmoid curve. The cleavage of AMC-based substrates by human recombinant caspases 1-10 was measured after 2 h at 37° C. on a fluorescence microplate reader by monitoring emission at 510 nm upon excitation at 405 nm.

[2] = target: T2, Human recombinant calpain I (Homo sapiens, UniProt P07384); assay: Calpain I inhibition assay; details: 2 μM
T2 construct: purchased Biomol
T2 sequence (P07384 1-714): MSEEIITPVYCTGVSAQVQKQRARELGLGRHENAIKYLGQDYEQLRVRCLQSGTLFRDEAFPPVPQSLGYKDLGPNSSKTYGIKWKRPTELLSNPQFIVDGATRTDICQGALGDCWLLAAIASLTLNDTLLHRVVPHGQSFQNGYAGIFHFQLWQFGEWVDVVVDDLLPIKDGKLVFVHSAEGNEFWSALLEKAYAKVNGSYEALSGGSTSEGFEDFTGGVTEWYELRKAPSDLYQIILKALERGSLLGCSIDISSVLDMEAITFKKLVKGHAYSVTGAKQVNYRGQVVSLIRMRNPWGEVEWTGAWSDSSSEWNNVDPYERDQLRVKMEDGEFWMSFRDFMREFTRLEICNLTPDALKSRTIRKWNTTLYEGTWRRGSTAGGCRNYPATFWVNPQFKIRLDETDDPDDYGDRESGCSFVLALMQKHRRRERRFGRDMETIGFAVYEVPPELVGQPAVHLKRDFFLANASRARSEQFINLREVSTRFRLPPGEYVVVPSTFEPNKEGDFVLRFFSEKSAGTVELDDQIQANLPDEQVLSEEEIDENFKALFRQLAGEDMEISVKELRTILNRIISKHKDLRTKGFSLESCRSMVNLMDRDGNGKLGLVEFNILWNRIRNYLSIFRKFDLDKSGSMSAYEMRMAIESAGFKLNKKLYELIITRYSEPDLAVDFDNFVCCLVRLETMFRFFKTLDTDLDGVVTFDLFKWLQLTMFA
T2 sequence (P04632 1-268 partner): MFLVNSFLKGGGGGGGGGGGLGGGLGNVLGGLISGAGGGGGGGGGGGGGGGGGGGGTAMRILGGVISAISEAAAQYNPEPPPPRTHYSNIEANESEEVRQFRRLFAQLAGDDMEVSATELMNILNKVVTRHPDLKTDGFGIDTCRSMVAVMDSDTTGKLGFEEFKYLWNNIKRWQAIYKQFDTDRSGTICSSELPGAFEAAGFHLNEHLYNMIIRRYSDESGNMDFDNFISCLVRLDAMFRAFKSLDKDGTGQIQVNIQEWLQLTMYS
Experimental: (§1) Additionally, specificity of newly designed inhibitors was checked against calpains and Granzyme B. Human recombinant calpain I (0.8 U) and rat recombinant calpain II (20 U) (both from Biomol) were pre-incubated 30 min with inhibitors in final 100 μl final assay buffer (50 mM HEPES, pH 7.4, 100 mM NaCl, 0.1% CHAPS, 5 mM CaCl2, 1 mM EDTA, 10% glycerol, 2 mM β-mercaptoethanol) and then mixed with 20 μM of the fluorogenic calpain substrates I or II (Calbiochem), respectively. ALLN and ALLM (1 μM) were internal controls for inhibition. The cleavage of substrates by recombinant enzymes was measured after 2 h at 37° C. on a fluorescence microplate reader by monitoring emission at 460 nm upon excitation at 380 nm for calpain I or emmission at 530 nm upon excitation at 485 nm for calpain II. Human granzyme B (50 U; Biomol) was pre-incubated 10 min with inhibitors in final 100 μl final granzyme assay buffer (Biomol) and then mixed with 400 μM of Ac-IEPD-pNA (Biomol). 3,4 DCIC (1 μM) was used as positive control for inhibition. The cleavage of substrate was measured after 1 h at 37° C. on a spectrophotometer at […]. Ac-IEPD-pNA is DEQ ID NO:29.

Human granzyme B = target: T3, Human granzyme B (Homo sapiens, UniProt P10144); assay: Granzyme B inhibition assay (Ac-IEPD-pNA); details: 2 μM
T3 construct: purchased Biomol
Experimental: as §1

[3] = target: T4, rat recombinant calpain II (Rattus norvegicus, UniProt Q07009); assay: Calpain II inhibition assay; details: 2 μM
T4 construct: purchased Biomol
T4 sequence (Q07009 1-700): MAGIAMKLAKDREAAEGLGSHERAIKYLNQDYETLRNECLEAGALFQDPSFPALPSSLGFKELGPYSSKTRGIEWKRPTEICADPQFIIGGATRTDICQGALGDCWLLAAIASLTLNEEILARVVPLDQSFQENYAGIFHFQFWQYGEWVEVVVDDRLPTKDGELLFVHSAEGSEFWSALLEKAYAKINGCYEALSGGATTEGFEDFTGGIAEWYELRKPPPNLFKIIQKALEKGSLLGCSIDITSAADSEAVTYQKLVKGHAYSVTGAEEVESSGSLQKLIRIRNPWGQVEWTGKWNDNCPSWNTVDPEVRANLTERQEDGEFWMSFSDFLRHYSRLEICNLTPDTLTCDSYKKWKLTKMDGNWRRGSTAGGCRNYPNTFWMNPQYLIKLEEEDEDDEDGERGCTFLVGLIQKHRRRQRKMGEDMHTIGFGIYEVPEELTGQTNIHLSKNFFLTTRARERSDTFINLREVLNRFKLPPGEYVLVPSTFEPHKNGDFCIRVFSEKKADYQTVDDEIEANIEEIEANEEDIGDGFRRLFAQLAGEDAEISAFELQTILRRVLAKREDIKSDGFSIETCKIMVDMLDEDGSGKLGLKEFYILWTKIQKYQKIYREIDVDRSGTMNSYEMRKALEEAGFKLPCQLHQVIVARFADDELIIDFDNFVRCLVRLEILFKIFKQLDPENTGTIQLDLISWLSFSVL
T4 sequence (Q64537 87-270 partner limits assumed): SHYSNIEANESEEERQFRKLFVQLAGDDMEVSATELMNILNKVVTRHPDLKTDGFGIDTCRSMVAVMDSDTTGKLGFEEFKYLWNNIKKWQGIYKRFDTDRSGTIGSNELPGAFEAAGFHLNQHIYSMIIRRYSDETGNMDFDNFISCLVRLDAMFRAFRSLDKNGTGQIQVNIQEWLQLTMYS
Experimental: as §1

T3 sequence (P10144 21-247): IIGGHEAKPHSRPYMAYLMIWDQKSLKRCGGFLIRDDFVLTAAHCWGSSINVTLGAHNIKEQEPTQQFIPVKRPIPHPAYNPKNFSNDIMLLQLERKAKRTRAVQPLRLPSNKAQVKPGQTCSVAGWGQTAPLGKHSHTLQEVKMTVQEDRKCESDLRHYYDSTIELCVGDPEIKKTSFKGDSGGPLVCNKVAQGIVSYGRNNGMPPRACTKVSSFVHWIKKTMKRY

Group (pattern of caspase-2 inhibition curve) [1]	VDVAD-AMC cleavage by caspase-2 ([1]; recombinant caspase-2, FIG. 16)	inhibition of calpain I [2]	inhibition of granzyme B (Human granzyme B)	inhibition of calpain II [3]	IC50 [1]	Structure (SMILES)	inhibition of other caspases (cross-reaction) (other caspases)
2	blocked	–	–	–	–	CC(=O)N[C@H](C(=O)N[C@@H](CC(=O)O)C(=O)N[C@H](C(=O)N[C@@H](C)C(=O)N[C@H](C=O)CC(=O)O)C(C)C)C(C)C [Compound 8, Ac-VDVAD-cho, reference compound] (Ac-VDVAD-aldehyde)	less than 20%
1	–	not strong inhibitors	not strong inhibitors	not strong inhibitors	85 ± 6 nM	CC(=O)N[C@@H](CC(C)C)C(=O)N[C@@H](CC(=O)O)C(=O)N[C@@H](CCC(=O)O)C(=O)N[C@@H](C)C(=O)N[C@H](C=O)CC(=O)O [Compound 14, Ac-LDEAD(SEQ ID NO:7)-cho] (Ac-LDEAD-aldehyde)	–
1	–	not strong inhibitors	not strong inhibitors	not strong inhibitors	85 ± 5 nM	CC(=O)N[C@H](C(=O)N[C@@H](CC(=O)O)C(=O)N[C@@H](CCC(=O)O)C(=O)N[C@@H](C)C(=O)N[C@H](C=O)CC(=O)O)C(C)C [Compound 20, Ac-VDEAD(SEQ ID NO:1)-cho] (Ac-VDEAD-aldehyde)	–

— US8324173B2, “Peptides useful as dual caspase-2/-6 inhibitors and their biological applications” (Chiesi Farmaceutici S.p.A., priority 2004, dated 2012)
